Consider five substances from publication PMC8041193 (PLoS ONE, 2021).

Series [1] can be described thus: LA concentration in porcine intestinal fluid collected via in vivo ultrafiltration probes, UPLC-MS/MS.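 As to all read-outs here: pigs aged 6–8 weeks and weighing 15–20 kg, intestinal fluid sampled through surgically implanted ultrafiltration probes whose placement was checked post mortem.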 Conditions: pig; for Concentration of LA fragments in duodenal and jejunal samples: oral 1 mg LA, fragments detected, all concentrations below the LLOQ, UPLC-MS/MS; for level at time molar at 1 h / level at time molar at 2 h / level at time molar at 3 h / level at time molar at 4 h: female, Yorkshire cross, po, 1 mg.
Description: Three female Yorkshire cross pigs weighing between 15–20 kg and 6–8 weeks of age were used in this study. […] All pigs were considered healthy on the basis of physical exams, which were performed upon delivery and after a minimum of 3 days’ acclimatization. The animals were housed individually in stainless steel pens to allow comprehensive observation of changes to the animal’s behavior, feed consumption, and volume or character of excreta. While housed in pens, each animal had free access to water, and commercial pig pelleted feed was provided twice daily.
Pigs were sedated with injection of ketamine (11 mg/kg, IM; Vedco) and xylazine (0.25 mg/kg, IM; Akorn Animal Health). Intravenous administration of buprenorphine (0.04 mg/kg; Par Pharmaceutical) and intramuscular administration of flunixin meglumine (2.2 mg/kg; Norbrook) and ceftiofur sodium (Excede for Swine, 8mg/kg; Med Pharmex Inc) were given for analgesia and infection prophylaxis, respectively. Pigs were intubated and maintained under general anesthesia using isoflurane delivered in 100% oxygen during the surgery. The abdomen was approached via midline laparotomy, and the pylorus was located. The duodenum was traced from the pylorus to an accessible point on the left side of the abdomen approximately 15–18 cm distal to the pylorus (Fig 2). The intestine was lifted and an incision was made using a #11 scalpel blade, piercing the anti-mesenteric intestinal wall into the lumen. A guide needle was used to introduce the UF probe into the duodenum threading the probe proximally toward the pylorus. The guide needle was subsequently removed, taking care to leave the UF probe in place [20]. The three loops of the UF probe remained within the intestine, and each probe was secured in the intestine by using a Halstead pattern suture around the probe, followed by a finger trap suture pattern using 3–0 Vicryl (Henry Schein). The nonpermeable connection tubing of the UF probe was extended to the lateral body wall, paramedian to the incision, and retrieved through a guide needle in order to exteriorize the tubing. The tubing was secured outside the animal by suturing the tubing to the skin using 3–0 nylon suture (Fig 3). The tubing was attached to a needle inserted into a vacutainer for sample collection during the remainder of the experiment. A second UF probe was placed into the jejunum 20 cm distal to the duodenum using the same methodology (Fig 2). The abdomen was closed in a routine manner. The pigs were monitored for assessment of pain each day of the experiment and given buprenorphine as an analgesic medication if necessary.
The formulated beads were weighed and placed into gelatin capsules prior to dosing.

Series [2] in a line: Non compartmental pharmacokinetic analysis of LA in porcine intestinal fluid. Type of series: in vivo. The note with it: pig intestinal fluid, oral LA 1 mg total (~0.05 mg/kg). The procedure:
Non compartmental pharmacokinetic analyses of LA in the intestinal fluid was performed using commercially available software (Phoenix® WinNonlin® Software version 8.3, Certara, Princeton, NJ). The pharmacokinetic parameters estimated for LA in intestinal fluid after oral administration included the elimination rate constant (λz), elimination half life (HLλz), the area under the curve from time zero to the last time point (AUClast), the maximum concentration (Cmax), time to maximum concentration (Tmax), the mean drug residence time from time zero to the last time point (MRTlast), which were calculated using the linear log trapezoidal method.

The conditions of series [3]: cited from earlier work. From the text: In vitro dissolution is the standard method used in the pharmaceutical industry to assess drug release from solid oral dosage forms and to predict the release profile in the GI tract by simulating the GI environment with appropriate buffer media. In vivo/ in vitro correlation analysis (IVIVC) was specifically designed to assess whether in vitro predictions match in vivo drug behavior. However, in this study IVIVC could not be performed for several reasons, including the lack of an injectable formulation, an immediate release and other multiple other extended release formulations and the ...

The mark [4] stands for this setting: distal duodenum, mean of 3 dose replicates.
[5] abbreviates: proximal jejunum, mean of 3 dose replicates.
[6] abbreviates: intestinal fluid (distal duodenum).
Setting [7] is: intestinal fluid (proximal jejunum).
Where [8] appears, read: intestinal fluid, distal duodenum.
[9] abbreviates: intestinal fluid, proximal jejunum.

Ends that are not written are not given here.

As for H-VLVQPG-OH [Fragment 2], the “Concentration of LA fragments in duodenal and jejunal samples” value (“Concentration of LA fragments” for short) in series [1] was < 0.16 µM.

As to H-GVLVQPG-OH [Fragment 1], the “Concentration of LA fragments” value in series [1] is < 0.15 µM.

For the substance GGVLVQPG [LA, Larazotide acetate], the “MRTlast, mean residence time from time zero to the last time point” value in series [2] (distal duodenum, dose replicate # 1) was determined as 1.58 h; in series [2] (distal duodenum, dose replicate # 2), 1.42 h; in series [2] (distal duodenum, dose replicate # 3) it was 1.65 h; in series [2] (setting [4]), 1.55 h; in series [2] (proximal jejunum, dose replicate # 1) it was 1.31 h; in series [2] (proximal jejunum, dose replicate # 2), 1.26 h. Also, the “MRTlast, mean residence time from time zero to the last time point” value in series [2] (proximal jejunum, dose replicate # 3) is reported as 1.53 h; in series [2] (setting [5]), 1.37 h. The figures for the “AUClast, area under the curve from time zero to the last time point” value in series [2] (setting [4]) and in series [2] (setting [5]) were 0.77 µg·h/mL and 0.91 µg·h/mL, respectively. In addition, the “Cmax, maximum concentration” value in series [2] (setting [4]) turned out to be 0.53 µg/mL; in series [2] (setting [5]), 0.78 µg/mL. Besides, the “HLλz, elimination half life” value in series [2] (setting [4]) turned out to be 39 min; in series [2] (setting [5]) it was 45.6 min. Moreover, the “Tmax, time to the maximum concentration” value in series [2] (setting [4]) and in series [2] (setting [5]) was 1 h in each case. Also, the “Λz, elimination rate constant” value in series [2] (setting [4]) turned out to be 1.14 h⁻¹; in series [2] (setting [5]), 1.0 h⁻¹. Also, the “Concentrations in human plasma” value in series [3] (all groups administered 0.25, 1, 4 and 8 mg LA, below the LOQ) is < 0.5 ng/mL. Besides, in series [3] (human plasma, oral LA (12mg), HPLC-MS/MS, all below LLOQ), the Plasma concentrations is < 0.5 ng/mL. Also, the level at time molar at 1 h in series [1] (setting [6]) turned out to be 0.74 ± 0.3 µM; in series [1] (setting [7]), 1.1 ± 0.48 µM; in series [1] (setting [8]) it was 0.74 µM; in series [1] (intestinal fluid, distal duodenum, LA concentration (µM), oral 1 mg LA human clinical formulation, 1h, case number 1, single measurement), 0.32 µM; in series [1] (intestinal fluid, distal duodenum, LA concentration (µM), oral 1 mg LA human clinical formulation, 1h, case number 2, single measurement), 0.98 µM; in series [1] (intestinal fluid, distal duodenum, LA concentration (µM), oral 1 mg LA human clinical formulation, 1h, case number 3, single measurement) it was 0.93 µM. Also, the level at time molar at 1 h in series [1] (setting [9]) is 1.1 µM; in series [1] (intestinal fluid, proximal jejunum, LA concentration (µM), oral 1 mg LA human clinical formulation, 1h, case number 1, single measurement), 0.65 µM; in series [1] (intestinal fluid, proximal jejunum, LA concentration (µM), oral 1 mg LA human clinical formulation, 1h, case number 2, single measurement), 1.76 µM; in series [1] (intestinal fluid, proximal jejunum, LA concentration (µM), oral 1 mg LA human clinical formulation, 1h, case number 3, single measurement) it was 0.88 µM. In addition, the level at time molar at 2 h was 0.27 ± 0.14 µM in series [1] (setting [6]); 0.25 ± 0.13 µM in series [1] (setting [7]); 0.27 µM in series [1] (setting [8]); 0.14 µM in series [1] (intestinal fluid, distal duodenum, LA concentration (µM), oral 1 mg LA human clinical formulation, 2h, case number 1, single measurement); 0.21 µM in series [1] (intestinal fluid, distal duodenum, LA concentration (µM), oral 1 mg LA human clinical formulation, 2h, case number 2, single measurement); 0.47 µM in series [1] (intestinal fluid, distal duodenum, LA concentration (µM), oral 1 mg LA human clinical formulation, 2h, case number 3, single measurement). Besides, the level at time molar at 2 h in series [1] (setting [9]) worked out at 0.25 µM; in series [1] (intestinal fluid, proximal jejunum, LA concentration (µM), oral 1 mg LA human clinical formulation, 2h, case number 1, single measurement), 0.13 µM; in series [1] (intestinal fluid, proximal jejunum, LA concentration (µM), oral 1 mg LA human clinical formulation, 2h, case number 2, single measurement), 0.18 µM; in series [1] (intestinal fluid, proximal jejunum, LA concentration (µM), oral 1 mg LA human clinical formulation, 2h, case number 3, single measurement) it was 0.43 µM. Also, the level at time molar at 3 h in series [1] (setting [6]) came out at 0.12 ± 0.09 µM; in series [1] (setting [7]) it was 0.09 ± 0.1 µM; in series [1] (setting [8]), 0.12 µM; in series [1] (intestinal fluid, distal duodenum, LA concentration (µM), oral 1 mg LA human clinical formulation, 3h, case number 1, single measurement), 0.03 µM; in series [1] (intestinal fluid, distal duodenum, LA concentration (µM), oral 1 mg LA human clinical formulation, 3h, case number 2, single measurement) it was 0.09 µM; in series [1] (intestinal fluid, distal duodenum, LA concentration (µM), oral 1 mg LA human clinical formulation, 3h, case number 3, single measurement), 0.25 µM. The level at time molar at 3 h is 0.09 µM in series [1] (setting [9]); 0.04 µM in series [1] (intestinal fluid, proximal jejunum, LA concentration (µM), oral 1 mg LA human clinical formulation, 3h, case number 1, single measurement); 0.22 µM in series [1] (intestinal fluid, proximal jejunum, LA concentration (µM), oral 1 mg LA human clinical formulation, 3h, case number 3, single measurement). Also, the level at time molar at 4 h in series [1] (setting [6]) was determined as 0.03 ± 0.01 µM; in series [1] (setting [7]) it was 0.03 ± 0.04 µM; in series [1] (setting [8]), 0.03 µM; in series [1] (intestinal fluid, distal duodenum, LA concentration (µM), oral 1 mg LA human clinical formulation, 4h, case number 1, single measurement), 0.03 µM; in series [1] (intestinal fluid, distal duodenum, LA concentration (µM), oral 1 mg LA human clinical formulation, 4h, case number 2, single measurement), 0.02 µM; in series [1] (intestinal fluid, distal duodenum, LA concentration (µM), oral 1 mg LA human clinical formulation, 4h, case number 3, single measurement), 0.03 µM. The level at time molar at 4 h in series [1] (setting [9]) stood at 0.03 µM; in series [1] (intestinal fluid, proximal jejunum, LA concentration (µM), oral 1 mg LA human clinical formulation, 4h, case number 2, single measurement) it was 0.09 µM. The “Continued presence of LA, concentration in proximal jejunum” value in series [1] (fasted, oral 1 mg LA clinical formulation, proximal jejunum, 2–4 hours, range of individual samples) lay within 0.00 to 0.43 µM. Also, the “LA concentration” value in series [1] (oral 1 mg LA human clinical formulation, proximal jejunum, 0h, case number 2, single measurement) amounted to 0.00 µM; in series [1] (oral 1 mg LA human clinical formulation, proximal jejunum, 0h, case number 3, single measurement) it was 0.00 µM; in series [1] (oral 1 mg LA human clinical formulation, proximal jejunum, 3h, case number 2, single measurement, below LOD reported as zero), 0.00 µM; in series [1] (oral 1 mg LA human clinical formulation, proximal jejunum, 4h, case number 1, single measurement, below LOD reported as zero), 0.00 µM; in series [1] (oral 1 mg LA human clinical formulation, proximal jejunum, 4h, case number 3, single measurement, below LOD reported as zero), 0.00 µM.

As to H-Val-Leu-Val-Gln-Pro-OH [Fragment 4], the “Concentration of LA fragments” value in series [1] was < 0.17 µM.

Take H-GGVLVQP-OH [Fragment 3]: the “Concentration of LA fragments” value in series [1] was < 0.15 µM.
